Measurements published in patent US11873298B2, “Compounds and uses thereof” (JANSSEN PHARMACEUTICA NV, priority 2017, dated 2024).

Key:
[1] = molecular target: T1, SCD1 (Homo sapiens, UniProt O00767); test: Growth inhibition of humanized yeast strain expressing SCD1 as sole desaturase; format: cell-based; details: humanized yeast strain, 40 h
T1 construct: host or cells: S. cerevisiae ole1Δ strain (W303 pdr1Δ pdr3Δ background), plasmid pRS316 with TDH3 promoter and CYC1 terminator
T1 sequence (O00767 1-359): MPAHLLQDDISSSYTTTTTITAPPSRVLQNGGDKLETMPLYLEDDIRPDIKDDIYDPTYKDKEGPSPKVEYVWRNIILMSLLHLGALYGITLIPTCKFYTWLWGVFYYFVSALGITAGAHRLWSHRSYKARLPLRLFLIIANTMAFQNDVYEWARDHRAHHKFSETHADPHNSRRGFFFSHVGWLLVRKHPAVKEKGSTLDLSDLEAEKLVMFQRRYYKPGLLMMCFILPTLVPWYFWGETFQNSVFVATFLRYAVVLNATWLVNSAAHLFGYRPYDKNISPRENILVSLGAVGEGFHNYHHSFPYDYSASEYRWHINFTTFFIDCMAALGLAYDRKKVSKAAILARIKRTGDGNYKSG
Method in brief: (§1)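 Plasmid-complemented ole1Δ yeast, drug-pump deleted (pdr1Δ pdr3Δ), depend solely on the introduced Ole1, SCD1 or SCD5 desaturase. Compounds are added from DMSO to cells in uracil-free galactose medium, 2× density 0.02, and OD600 is read after 24 h or 40 h respectively.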

[2] = molecular target: T2, SCD5 (Homo sapiens, UniProt Q86SK9); test: Growth inhibition of humanized yeast strain expressing SCD5 as sole desaturase; format: cell-based; details: humanized yeast strain, 40 h
T2 construct: host or cells: S. cerevisiae ole1Δ strain (W303 pdr1Δ pdr3Δ background), plasmid pRS316 with TDH3 promoter and CYC1 terminator
T2 sequence (Q86SK9 1-330): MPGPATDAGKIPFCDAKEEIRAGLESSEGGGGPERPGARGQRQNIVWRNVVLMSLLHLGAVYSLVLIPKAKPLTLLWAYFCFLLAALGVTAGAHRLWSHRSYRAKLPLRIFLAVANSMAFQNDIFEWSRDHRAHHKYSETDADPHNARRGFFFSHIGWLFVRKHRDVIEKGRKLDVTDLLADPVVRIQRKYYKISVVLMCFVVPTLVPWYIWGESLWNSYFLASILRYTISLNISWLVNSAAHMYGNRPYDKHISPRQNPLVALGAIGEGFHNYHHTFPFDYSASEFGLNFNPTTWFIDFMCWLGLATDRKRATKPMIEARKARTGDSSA
Method in brief: as §1

SMILES	IC50 [1]	IC50 [2]
CC(C)(C)OC(=O)N1CCCN(c2noc(-c3ccc4cnn(C5COC5)c4c3)n2)CC1 [Compound 854]	14.6 µM	0.01 µM
C=C(C)c1ncn2ccc(-c3noc(C4CCN(C(=O)OC(C)(C)C)CC4)n3)cc12 [Compound 855]	> 45 µM	> 45 µM
COC(=O)N1CCC(c2nc(-c3ccnc(C(O)C(C)C)c3)no2)CC1 (centres unmarked) [Compound 856]	> 45 µM	> 45 µM
COC(=O)N1CCCN(c2noc(-c3ccc4cnn(C5COC5)c4c3)n2)CC1 [Compound 857]	> 45 µM	26.8 µM
CC(C)(C)OC(=O)N1CCC(c2nc(-c3ccn4cnc(I)c4c3)no2)CC1 [Compound 858]	> 45 µM	0.262 µM
CO[C@H]1C[C@H](n2ncc3ccc(-c4noc(C5CCN(C(=O)OC(C)(C)C)CC5)n4)cc32)C1 [Compound 859]	> 45 µM	> 4 µM
CC(C)(C)OC(=O)N1CCC(c2noc(-c3cc(F)c4cnn(C5COC5)c4c3)n2)CC1 [Compound 860]	> 45 µM	0.478 µM
CC(=O)N1CC(n2ncc3ccc(-c4nc(C5CCN(C(=O)OC(C)(C)C)CC5)no4)cc32)C1 [Compound 861]	15 µM	0.01 µM
c1cc2cnn(C3COC3)c2cc1-c1nc(C2CCCNCC2)no1 (centres unmarked) [Compound 863]	> 45 µM	> 45 µM
O=C(C1CC2(CC2)C1)N1CCN(c2noc(-c3ccc4cnn(C5COC5)c4c3)n2)CC1 [Compound 864]	> 45 µM	> 45 µM
CC(C)(C)OC(=O)N1CCC(c2nc(-c3ccc4cnc(Br)n4c3)no2)CC1 [Compound 865]	> 45 µM	0.01 µM
CC(C)c1ncn2ccc(-c3noc(C4CCN(C(=O)OC(C)(C)C)CC4)n3)cc12 [Compound 866]	> 45 µM	4.61 µM
CO[C@H]1C[C@@H](n2ncc3ccc(-c4noc(C5CCN(C(=O)OC(C)(C)C)CC5)n4)cc32)C1 [Compound 867]	> 45 µM	1.92 µM
CC(C)n1cc2c(n1)CN(c1noc(C3CCN(C(=O)OC(C)(C)C)CC3)n1)CC2 [Compound 868]	> 45 µM	0.967 µM
CC(C)n1ncc2ccc(-c3noc(N4CCN(C(=O)CC5CC5)CC4)n3)cc21 [Compound 869]	> 45 µM	1.64 µM
CC(C)n1ncc2ccc(-c3noc(C4CCN(C(=O)CC5CC5(F)F)CC4)n3)cc21 (centres unmarked) [Compound 870]	> 45 µM	4.26 µM
COC(=O)N1CCC(c2nnc(-c3ccc4cnn(C5COC5)c4c3)o2)CC1 [Compound 871]	> 45 µM	9.54 µM
CC(C)(C)OC(=O)N1CCC(c2nc(-c3ccc4c(Br)ncn4c3)no2)CC1 [Compound 872]	> 45 µM	8.06 µM
COC(=O)N1CCCC(c2noc(-c3ccc4cnn(C5COC5)c4c3)n2)CC1 (centres unmarked) [Compound 873]	> 45 µM	41.3 µM
CC(C)n1ncc2ccc(-c3nc(N4CCN(C(=O)CC5CC5)CC4)no3)cc21 [Compound 874]	> 45 µM	0.05 µM

SMILES	IC50 [1]	IC50 [2]
COC(=O)N1CCC(c2noc(-c3cc(F)c4cnn(C5COC5)c4c3)n2)CC1 [Compound 875]	> 45 µM	0.02 µM
COC(=O)N1CCC(c2noc(-c3ccc4cnn([C@H]5CCOC5)c4c3)n2)CC1 [Compound 878]	> 45 µM	0.005 µM
COC(=O)N1CCC(c2noc(-c3ccc4cnn([C@H]5CCOC5)c4c3)n2)CC1 [Compound 879]	5.5 µM	0.01 µM
O=C(C1CCC1)N1CCC(c2noc(-c3ccc4cnn(C5COC5)c4c3)n2)CC1 [Compound 880]	> 45 µM	0.01 µM
O=C(c1ncccc1F)N1CCC(c2noc(-c3ccc4cnn(C5COC5)c4c3)n2)CC1 [Compound 881]	> 45 µM	0.01 µM
CC(C)(C)OC(=O)N1CCC(c2noc(-c3cc4c(Cl)nccn4c3)n2)CC1 [Compound 882]	6.56 µM	1.91 µM
CC(C)(C)OC(=O)N1CCC(F)(c2noc(-c3ccc4cnn(C5COC5)c4c3)n2)CC1 [Compound 883]	> 45 µM	1 µM
COC1(C(=O)N2CCN(c3noc(-c4ccc5cnn(C6COC6)c5c4)n3)CC2)CC1 [Compound 884]	> 45 µM	0.01 µM
CC(C)n1ncc2cnc(-c3cc(C4CCN(C(=O)OC(C)(C)C)CC4)on3)cc21 [Compound 885]	25.4 µM	0.01 µM
CC1(CC(=O)N2CCC(c3noc(-c4ccc5cnn(C6COC6)c5c4)n3)CC2)CC1 [Compound 886]	10.6 µM	0.06 µM
O=C(C1CC1)N1CCC(c2noc(-c3ccc4cnn(C5COC5)c4c3)n2)CC1 [Compound 887]	> 45 µM	0.01 µM
C=C(C)c1nccn2cc(-c3nc(C4CCN(C(=O)OC(C)(C)C)CC4)no3)cc12 [Compound 888]	> 45 µM	0.01 µM
COC1(C(=O)N2CCN(c3noc(-c4ccc5cnn(C(C)C)c5c4)n3)CC2)CC1 [Compound 889]	13.3 µM	1.9 µM
O=C(N1CCC(c2noc(-c3ccc4cnn(C5COC5)c4c3)n2)CC1)C12CC(C1)C2 [Compound 890]	22.7 µM	0.01 µM
CCC(=O)N1CCC(c2noc(-c3ccc4cnn(C5COC5)c4c3)n2)CC1 [Compound 891]	> 45 µM	0.01 µM
COC(=O)N1CCC(F)(c2noc(-c3ccc4cnn(C5COC5)c4c3)n2)CC1 [Compound 892]	> 45 µM	0.01 µM
CC(C)n1ncc2c1CN(c1noc(C3CCN(C(=O)OC(C)(C)C)CC3)n1)CC2 [Compound 893]	> 45 µM	0.01 µM
O=C(CC1CC1)N1CCC(c2noc(-c3ccc4cnn(C5COC5)c4c3)n2)CC1 [Compound 894]	> 45 µM	0.07 µM
O=C(N1CCC(c2noc(-c3ccc4cnn(C5COC5)c4c3)n2)CC1)C12CC(F)(C1)C2 [Compound 895]	> 45 µM	0.01 µM
Clc1cnc2n1CCN(c1noc(-c3ccc4cnn(C5COC5)c4c3)n1)C2 [Compound 896]	> 45 µM	0.01 µM

SMILES	IC50 [1]	IC50 [2]
CC(=O)N1CC(n2ncc3ccc(-c4noc(N5CCN(C(=O)OC(C)(C)C)CC5)n4)cc32)C1 [Compound 897]	> 45 µM	0.06 µM
CC(=O)N1CC(n2cc3ccc(-c4noc(N5CCN(C(=O)OC(C)(C)C)CC5)n4)cc3n2)C1 [Compound 898]	> 45 µM	0.07 µM
CC(C)(C)OC(=O)N1CCC(c2nc(-c3ccc4c(C#N)ncn4c3)no2)CC1 [Compound 899]	> 45 µM	26 µM
COC(=O)N1CCC(c2nc(-c3ccc4cnc(C5COC5)n4c3)no2)CC1 [Compound 900]	> 45 µM	13.1 µM
CC(C)c1nccn2cc(-c3nc(C4CCN(C(=O)OC(C)(C)C)CC4)no3)cc12 [Compound 901]	> 45 µM	> 45 µM
COC1(C(=O)N2CCC(c3noc(-c4ccc5cnn(C6COC6)c5c4)n3)CC2)CC1 [Compound 902]	> 45 µM	0.01 µM
O=C(N1CCC(c2noc(-c3ccc4cnn(C5COC5)c4c3)n2)CC1)C1(O)CC1 [Compound 903]	> 45 µM	0.01 µM
Clc1cnc2n1CCN(c1noc(-c3ccc4cn[nH]c4c3)n1)C2 [Compound 904]	> 45 µM	7.62 µM
Clc1cnc2n1CCN(c1noc(-c3ccc4cnn(C5CCC5)c4c3)n1)C2 [Compound 905]	> 45 µM	> 45 µM
COC(=O)N1CCC(c2nc(-c3ccc4cnn([C@H]5CCOC5)c4c3)no2)CC1 [Compound 906]	> 45 µM	0.89 µM
COC(=O)N1CCC(c2nc(-c3ccc4cnn([C@@H]5CCOC5)c4c3)no2)CC1 [Compound 907]	> 45 µM	0.04 µM
COC(=O)N1CCC(c2nc(N3CCc4cnn(C(C)C)c4C3)no2)CC1 [Compound 908]	> 45 µM	0.19 µM
CC(C)(C)OC(=O)N1CCC(c2noc(-c3ccc4cnc(C5COC5)n4c3)n2)CC1 [Compound 909]	> 45 µM	2.85 µM
CC(C)(C)OC(=O)N1CCN(c2nc(-c3ccc4cnn(C5CNC5)c4c3)no2)CC1 [Compound 910]	> 45 µM	0.01 µM
Cc1nn(C)c2cc(-c3nc(C4CCN(C(=O)OC5CC5)CC4)no3)ccc12 [Compound 911]	> 45 µM	> 45 µM
CC(C)(C)OC(=O)N1CCC(c2nc(-c3ccc4cn[nH]c4c3)no2)CC1 [Compound 912]	> 45 µM	1.98 µM
COC(=O)N1CCN(c2nc(-c3ccc4cnn(C5CNC5)c4c3)no2)CC1 [Compound 913]	> 45 µM	13.8 µM
CC(=O)N1CC(n2cc3ccc(-c4nc(N5CCN(C(=O)OC(C)(C)C)CC5)no4)cc3n2)C1 [Compound 914]	> 45 µM	6.17 µM
